Patent US6143715A, “Hepatitis C inhibitor peptide analogues” (priority 1998, dated 2000)
Read-outs that look alike come from different tables or passages of the source. Starred links: 1 amine or outer side, 2 acyl side, 3 side chain; linkers in the order of their positions; H or OH if unused. Non-standard residues stand in square brackets, D forms with d. Residues, ends and D or L forms follow the SMILES beside them. ξ: configuration not given here. *: point of attachment. NH(1S-phenylethyl) = C[C@H](N*)c1ccccc1; Hyp = O=C(O)[C@@H]1C[C@@H](O)CN1; azaNva = CCCN(N[*:1])C(=O)[*:2]; AzaAla = CN(N[*:1])C(=O)[*:2]; X10 = C=CCN(N[*:1])C(=O)[*:2]; X7 = CCCCCN(N[*:1])C(=O)[*:2]; X2 = CCCN(N*)C(=O)OCc1ccccc1; X5 = CCCN(N*)C(=O)CCc1ccccc1; X6 = CCCC(N*)C(=O)CCc1ccccc1; X12 = C[C@H](N*)c1nnn[nH]1; Nva = CCC[C@H](N)C(=O)O; NHBn = c1ccc(CN*)cc1; ξNva = CCCC(N)C(=O)O; ξAbu = CCC(N)C(=O)O; Bn = c1ccc(C*)cc1; CF3 = FC(F)(F)*

Key:
[1] = test system: HCV; details: as described in WO 97/06804; cited from earlier work
[2] = target: T1, HCV NS3 protease type 1b/NS4A cofactor peptide (Hepatitis C virus genotype 1b, UniProt P26663); assay: biochemical; set-up: species or system hepatitis C virus (HCV) genotype 1b
T1 construct: recombinant HCV NS3 protease (amino acid 1027 to 1206) was cloned; made in house; host or cells: E. coli BL21(DE3)pLysS
Text: a) Cloning, expression and purification of the recombinant HCV NS3 protease type lb
Serum from an HCV-infected patient was obtained through an external collaboration (Bernard Willems MD, Hopital St-Luc, Montreal, Canada and Dr. Donald Murphy, Laboratoire de Sante Publique du Quebec, Ste-Anne de Bellevue, Canada). An engineered full-length cDNA template of the HCV genome was constructed from DNA fragments obtained by reverse transcription-PCR (RT-PCR) of serum RNA and using specific primers selected on the basis of homology between other genotype lb strains. […] A DNA fragment encoding the polyprotein precursor (NS3/NS4A/NS4B/NS5A/NS5B) was generated by PCR and introduced into eucaryotic expression vectors.
The NS3 protease expression in E. coli BL21(DE3)pLysS was induced by incubation with 1 mM IPTG for 3 h at 22° C. […] The cells were resuspended in lysis buffer (3.0 mL/g) consisting of 25 mM sodium phosphate, pH 7.5, 10% glycerol (v/v), 1 mM EDTA, 0.01% NP-40 and stored at -80° C. Cells were thawed and homogenized following the addition of 5 mM DTT. Magnesium chloride and DNase were then added to the homogenate at final concentrations of 20 mM and 20 μg/mL respectively. After a 25 min incubation at 4° C., the homogenate was sonicated and centrifuged at 15000× g for 30 min at 4° C. The pH of the supernatant was then adjusted to 6.5 using a 1M sodium phosphate solution.
Briefly, the supernatant from the bacterial extract was loaded on a SP HiTrap column (Pharmacia) previously equilibrated at a flow rate of 2 mL/min in buffer A (50 mM sodium phosphate, pH 6.5, 10% glycerol, 1 mM EDTA, 5 mM DTT, 0.01% NP-40). The column was then washed with buffer A containing 0.15 M NaCl and the protease eluted by applying 10 column volumes of a linear 0.15 to 0.3 M NaCl gradient. NS3 protease-containing fractions were pooled and diluted to a final NaCl concentration of 0.1 M. The enzyme was further purified on a HiTrap Heparin column (Pharmacia) equilibrated in buffer B (25 mM sodium phosphate, pH 7.5, 10% glycerol, 5 mM DTT, 0.01% NP-40). The sample was loaded at a flow rate of 3 mL/min. The column was then washed with buffer B containing 0.15 M NaCl at a flow rate of 1.5 mL/min. Two step washes were performed in the presence of buffer B containing 0.3 or 1M NaCl. […] Finally, the NS3 protease-containing fractions were applied on a Superdex 75 HiLoad 16/60 column (Pharmacia) equilibrated in buffer B containing 0.3 M NaCl.
The enzyme was stored at -80° C. and was thawed on ice and diluted just prior to use.
Recombinant HCV NS3 Protease/NS4A Cofactor Peptide Radiometric Assay
The enzyme was stored at -80° C., thawed on ice and diluted just prior to use in the assay buffer containing the NS4A cofactor peptide.
The substrate used for the NS3 protease/[…] cofactor peptide radiometric assay, DDIVPC-SMSYTW, is cleaved between the cysteine and the serine residues by the enzyme. The sequence DDIVPC-SMSYTW corresponds to the NS5A/NS5B natural cleavage site in which the cysteine residue in […] has been substituted for a proline. […] (molar ratio enzyme: cofactor 1:100) in the absence or presence of inhibitors. The separation of substrate from products is performed by adding avidin-coated agarose beads to the assay mixture followed by filtration.
Assay buffer: 50 mM Tris HCl, pH 7.5, 30% (w/v) glycerol, 1 mg/mL BSA, 1 mM TCEP (TCEP added just prior to use from a 1 M stock solution in water)
Substrate: […], […] final concentration (from a 2 mM stock solution in DMSO stored at -20° C. to avoid oxidation).

[3] = target: T2, human leukocyte elastase (Homo sapiens, UniProt P08246); assay: Specificity assay, human leukocyte elastase (pNA substrate); format: biochemical
T2 sequence (P08246 30-267): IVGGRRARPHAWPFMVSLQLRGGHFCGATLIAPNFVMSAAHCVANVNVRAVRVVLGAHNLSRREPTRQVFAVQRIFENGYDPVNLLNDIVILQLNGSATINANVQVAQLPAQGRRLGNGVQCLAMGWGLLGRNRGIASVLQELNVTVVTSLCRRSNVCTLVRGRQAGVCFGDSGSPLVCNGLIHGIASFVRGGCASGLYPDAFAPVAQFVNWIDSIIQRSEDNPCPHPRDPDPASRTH
Experimental: The specificity of the compounds was determined against a variety of serine proteases: human leukocyte elastase, porcine pancreatic elastase and bovine pancreatic α-chymotrypsin and one cysteine protease: human liver cathepsin B. In all cases a 96-well plate format protocol using a […] p-nitroanilide (pNA) substrate specific for each enzyme was used. Each assay included a 1 h enzyme-inhibitor pre-incubation at 30° C. followed by addition of substrate and hydrolysis to ≈30% conversion as measured on a UV Thermomax® microplate reader. Substrate concentrations were kept as low as possible compared to KM to reduce substrate competition. […] The final conditions for each assay were as follows:
(§1) 50 mM Tris-HCl pH 8, 0.5 M Na2 SO4, 50 mM NaCl, 0.1 mM EDTA, 3% DMSO, 0.01% Tween-20 with;
All other specificity assays were performed in a similar fashion.
(§2) The percentage of inhibition was calculated using the formula:
(§3) [1-(UVinh -UVblank)/(UVctl -UVblank))]×100

[4] = target: porcine pancreatic elastase (Sus scrofa, UniProt P00772); assay: Specificity assay, porcine pancreatic elastase (pNA substrate); format: biochemical
Experimental: The specificity of the compounds was determined against a variety of serine proteases: human leukocyte elastase, porcine pancreatic elastase and bovine pancreatic α-chymotrypsin and one cysteine protease: human liver cathepsin B. In all cases a 96-well plate format protocol using a calorimetric p-nitroanilide (pNA) substrate specific for each enzyme was used. Each assay included a 1 h enzyme-inhibitor pre-incubation at 30° C. followed by addition of substrate and hydrolysis to ≈30% conversion as measured on a UV Thermomax® microplate reader. Substrate concentrations were kept as low as possible compared to KM to reduce substrate competition. […] The final conditions for each assay were as follows:
A representative example is summarized below for porcine pancreatic elastase:
In a polystyrene flat-bottom 96-well plate were added using a Biomek liquid handler (Beckman):
40 μL of assay buffer (50 mM Tris-HCl pH 8, 50 mM NaCl, 0.1 mM EDTA);
20 μL of enzyme solution (50 mM Tris-HCl pH 8, 50 mM NaCl, 0.1 mM EDTA, 0.02% Tween-20, 40 nM porcine pancreatic elastase); and

[5] = target: bovine pancreatic α-chymotrypsin (Bos taurus, UniProt P00766, DEL14-15/DEL147-148); assay: Specificity assay, bovine pancreatic α-chymotrypsin (pNA substrate); format: biochemical; details: 1 h enzyme-inhibitor pre-incubation at 30° C., Succ-AAPF-pNA
Experimental: The final conditions for each assay were as follows:
as §1, §2, §3

[6] = target: human liver cathepsin B (Homo sapiens, UniProt P07858); assay: biochemical
Experimental: The specificity of the compounds was determined against a variety of serine proteases: human leukocyte elastase, porcine pancreatic elastase and bovine pancreatic α-chymotrypsin and one cysteine protease: human liver cathepsin B. In all cases a 96-well plate format protocol using a calorimetric p-nitroanilide (pNA) substrate specific for each enzyme was used. Each assay included a 1 h enzyme-inhibitor pre-incubation at 30° C. followed by addition of substrate and hydrolysis to ≈30% conversion as measured on a UV Thermomax® microplate reader. Substrate concentrations were kept as low as possible compared to KM to reduce substrate competition.

[7] = target: NS3 protease (Hepatitis C virus genotype 1b, UniProt P26663); assay: Inhibition of NS3 protease by N-terminal cleavage product; format: biochemical; details: N-terminal cleavage product of an analogue of a natural substrate
[8] = 1 h enzyme-inhibitor pre-incubation at 30° C., Succ-AAV-pNA
[9] = 1 h enzyme-inhibitor pre-incubation at 30° C., Succ-AAA-pNA

porcine pancreatic elastase, sequence (P00772 27-266): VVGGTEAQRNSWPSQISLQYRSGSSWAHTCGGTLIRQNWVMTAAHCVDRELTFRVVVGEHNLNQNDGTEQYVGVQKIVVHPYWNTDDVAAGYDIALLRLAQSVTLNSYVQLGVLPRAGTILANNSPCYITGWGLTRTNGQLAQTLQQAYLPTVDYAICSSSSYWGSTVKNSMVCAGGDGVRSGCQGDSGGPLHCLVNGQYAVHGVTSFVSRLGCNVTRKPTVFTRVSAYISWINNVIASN
T1 sequence (P26663 1027-1206, other chains not shown): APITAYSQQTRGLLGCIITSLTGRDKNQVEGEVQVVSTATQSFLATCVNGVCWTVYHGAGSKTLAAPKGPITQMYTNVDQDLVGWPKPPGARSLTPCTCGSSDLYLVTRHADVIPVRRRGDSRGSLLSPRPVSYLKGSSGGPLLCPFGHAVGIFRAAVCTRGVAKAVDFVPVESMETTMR
NS3 protease, sequence (P26663 1027-1206): as the sequence (P26663 1027-1206, other chains not shown) above

Compound | IC50 [2] | IC50 [3, 8] | also measured
Nc1ccn([C@@H]2CS[C@H](CO)O2)c(=O)n1 (single isomer, unassigned) [3TC, (-) enantiomer of the nucleoside analogue cytosine-1,3-oxathiolane] |  |  | active against HCV [1]: active against HCV
CCCC(NC(=O)[C@@H]1C[C@@H](OCc2ccccc2)CN1C(=O)[C@@H](NC(=O)[C@@H](NC(=O)[C@@H](CCC(=O)O)NC(=O)[C@H](CC(=O)O)NC(C)=O)[C@@H](C)CC)C(C)C)P(=O)(Oc1ccccc1)Oc1ccccc1 (single isomer, unassigned) [Compound 301] |  |  | IC50 ([2]; IC50: concentration required to obtain 50% inhibition in the NS3 protease/NS4A cofactor peptide radiometric assay, enzyme:cofactor 1:100, 40 min at 23° C.): 0.029 µM; IC50 [3]: < 0.6 µM; IC50 [4]: < 0.6 µM; IC50 [5]: 3 µM; IC50 [6]: > 300 µM
CCC(NC(=O)[C@@H]1C[C@@H](OCc2ccccc2)CN1C(=O)[C@@H](NC(=O)[C@@H](NC(=O)[C@@H](CCC(=O)O)NC(=O)[C@H](CC(=O)O)NC(C)=O)[C@@H](C)CC)C(C)C)C(=O)C(F)(F)F (stereo partly shown) [Compound 101] (Ac-D[dE]IV[Hyp](Bn)[ξAbu]-CF3) | 9.4 µM | < 1.2 µM | 
CCCC(C=O)NC(=O)[C@@H]1C[C@@H](OCc2ccccc2)CN1C(=O)[C@@H](NC(=O)[C@@H](NC(=O)[C@@H](CCC(=O)O)NC(=O)[C@H](CC(=O)O)NC(C)=O)[C@@H](C)CC)C(C)C (stereo partly shown) [Compound 104] (Ac-D[dE]IV[Hyp](Bn)[ξNva]-aldehyde) | 0.14 µM | 7 µM | IC50 [4, 9]: 8 µM; IC50 [5]: 8 µM
CCCC(NC(=O)[C@@H]1C[C@@H](OCc2ccccc2)CN1C(=O)[C@@H](NC(=O)[C@@H](NC(=O)[C@@H](CCC(=O)O)NC(=O)[C@H](CC(=O)O)NC(C)=O)[C@@H](C)CC)C(C)C)C(=O)CCc1ccccc1 (stereo partly shown) [Compound 106] (Ac-D[dE]IV[Hyp](Bn)-X6) | 5.4 µM |  | IC50 [3]: 16 µM
CCC[C@H](NC(=O)[C@@H]1C[C@@H](OCc2ccccc2)CN1C(=O)[C@@H](NC(=O)[C@@H](NC(=O)[C@@H](CCC(=O)O)NC(=O)[C@H](CC(=O)O)NC(C)=O)[C@@H](C)CC)C(C)C)C(=O)N[C@@H](C)c1ccccc1 [Compound 108] (Ac-D[dE]IV[Hyp](Bn)[Nva]-{NH(1S-phenylethyl)}) | 0.71 µM | 3 µM | IC50 [4, 9]: > 300 µM; IC50 [5]: > 300 µM
CCCC(NC(=O)[C@@H]1C[C@@H](OCc2ccccc2)CN1C(=O)[C@@H](NC(=O)[C@@H](NC(C)=O)C1CCCCC1)C(C)C)C(=O)C(=O)NCc1ccccc1 (stereo partly shown) [Compound 109] | 23 µM | 2 µM | 
CCCN(NC(=O)[C@@H]1C[C@@H](OCc2ccccc2)CN1C(=O)[C@@H](NC(=O)[C@@H](NC(=O)[C@@H](CCC(=O)O)NC(=O)[C@H](CC(=O)O)NC(C)=O)[C@@H](C)CC)C(C)C)C(=O)NCC(=O)OCC [Compound 201] (Ac-D[dE]IV[Hyp](Bn)[azaNva]G-OEt) | 3.9 µM | 27.4 µM | IC50 [4, 9]: 168 µM
CCCN(NC(=O)[C@@H]1C[C@@H](OCc2ccccc2)CN1C(=O)[C@@H](NC(=O)[C@@H](NC(=O)[C@@H](CCC(=O)O)NC(=O)[C@H](CC(=O)O)NC(C)=O)[C@@H](C)CC)C(C)C)C(=O)CCc1ccccc1 [Compound 202] (Ac-D[dE]IV[Hyp](Bn)-X5) | 0.63 µM | 5.5 µM | 
CCCN(NC(=O)[C@@H]1C[C@@H](OCc2ccccc2)CN1C(=O)[C@@H](NC(=O)[C@@H](NC(=O)[C@@H](CCC(=O)O)NC(=O)[C@H](CC(=O)O)NC(C)=O)[C@@H](C)CC)C(C)C)C(=O)OCc1ccccc1 [Compound 206] (Ac-D[dE]IV[Hyp](Bn)-X2) | 0.79 µM | < 0.6 µM | IC50 [4, 9]: < 0.6 µM
CCCN(NC(=O)[C@@H]1C[C@@H](OCc2ccccc2)CN1C(=O)[C@@H](NC(=O)[C@@H](NC(C)=O)C1CCCCC1)C(C)C)C(=O)N[C@@H](C)c1ccccc1 [Compound 215] | 45 µM | 5 µM | 
CCCCCN(NC(=O)[C@@H]1C[C@@H](OCc2ccccc2)CN1C(=O)[C@@H](NC(=O)[C@@H](NC(=O)[C@@H](CCC(=O)O)NC(=O)[C@H](CC(=O)O)NC(C)=O)[C@@H](C)CC)C(C)C)C(=O)N[C@@H](C)c1ccccc1 [Compound 219] (Ac-D[dE]IV[Hyp](Bn)[X7]-{NH(1S-phenylethyl)}) | 0.43 µM | 151 µM | 
CC[C@H](C)[C@H](NC(=O)[C@@H](CCC(=O)O)NC(=O)[C@H](CC(=O)O)NC(C)=O)C(=O)N[C@H](C(=O)N1C[C@H](OCc2ccccc2)C[C@H]1C(=O)NN(C)C(=O)N[C@@H](C)c1ccccc1)C(C)C [Compound 221] (Ac-D[dE]IV[Hyp](Bn)[AzaAla]-{NH(1S-phenylethyl)}) | 0.52 µM | 168 µM | 
CCCN(NC(=O)[C@@H]1C[C@@H](OCc2ccccc2)CN1C(=O)[C@@H](NC(=O)[C@@H](NC(=O)[C@@H](CCC(=O)O)NC(=O)[C@H](CC(=O)O)NC(C)=O)[C@@H](C)CC)C(C)C)C(=O)N[C@@H](C)c1nnn[nH]1 [Compound 233] (Ac-D[dE]IV[Hyp](Bn)[azaNva]-X12) | 1.5 µM |  | 
C=CCN(NC(=O)[C@@H]1C[C@@H](OCc2ccccc2)CN1C(=O)[C@@H](NC(=O)[C@@H](NC(=O)[C@@H](CCC(=O)O)NC(=O)[C@H](CC(=O)O)NC(C)=O)[C@@H](C)CC)C(C)C)C(=O)NCc1ccccc1 [Compound 234] (Ac-D[dE]IV[Hyp](Bn)[X10]-NHBn) | 3.7 µM |  | 
Ac-DDIVPC-OH [Ac-D-D-I-V-P-C-OH] |  |  | inhibitory to the NS3 protease [7]: inhibitory
